Reference: patent US10844044B2 (Vanderbilt University, priority 2018, dated 2020)

Test system: MV4:11 human cancer cell lines
Assay: Anti-proliferative activity, CellTiter-Glo viability assay, 7 day protocol
Type: cell-based
Conditions: Homo sapiens, MV4-11, 168 h, MV4:11 cells, 7 day incubation, read-out: GI50 on cellular proliferation of MV4:11 human cancer cell lines
Procedure: Viability assays are performed by dispensing […] into each well of an opaque 384-well plate and adding compounds at the indicated concentrations in a final volume of 32 μL and a final concentration of DMSO of 0.1% for all samples. After a set incubation period, 7 day protocol, the viability of cells in each well is assessed using the CellTiter-Glo assay (Promega), read on a GloMax 96 Microplane Luminometer (Promega). Serial dilutions of each cell type are included in all assays to generate standard curves and determine assay measurements are taken within the dynamic range of the instrument. GI50 values are calculated based on three biological replicates, each with three technical replicates. Data are expressed as mean plus/minus S.E.M.

| GI50 [µM] | Compound |
| --- | --- |
| 0.18 | Cc1cc([C@@H](NC(=O)c2cc(Cn3ccn(C)c3=N)cc(-c3ncc(F)cc3C(F)(F)F)c2)C2CC2)ccc1F [Example 72, (S)—N-(Cyclopropyl(4-fluoro-3-methylphenyl)methyl)-3-(5-fluoro-3-(trifluoromethyl)pyridin-2-yl)-5-((2-imino-3-methyl-2,3-dihydro-1H-imidazol-1-yl)methyl)benzamide] |
| 1.8 | Cc1cc([C@@H](NC(=O)c2cc(Cn3ccn(C)c3=N)cc(-c3ccc(F)cc3OC(F)F)c2)C2CC2)ccc1F [Example 73, (S)—N-(cyclopropyl(4-fluoro-3-methylphenyl)methyl)-2′-(difluoromethoxy)-4′-fluoro-5-((2-imino-3-methyl-2,3-dihydro-1-imidazol-1-yl)methyl)-[1,1′-biphenyl]-3-carboxamide] |
| 4.5 | COc1cc(OC)cc(C(NC(=O)c2cc(Cn3ccn(C)c3=N)cc(-c3ncc(F)cc3C(F)(F)F)c2)C2CC2)c1 (centres unmarked) [Example 74, N-(Cyclopropyl(3,5-dimethoxyphenyl)methyl)-3-(5-fluoro-3-(trifluoromethyl)pyridin-2-yl)-5-((2-imino-3-methyl-2,3-dihydro-1H-imidazol-1-yl)methyl)benzamide] |
| 12 | Cc1ccnc(C(NC(=O)c2cc(Cn3ccn(C)c3=N)cc(-c3ncc(F)cc3C(F)(F)F)c2)C2CC2)c1 (centres unmarked) [Example 75, N-(Cyclopropyl(4-methylpyridin-2-yl)methyl)-3-(5-fluoro-3-(trifluoromethyl)pyridin-2-yl)-5-((2-imino-3-methyl-2,3-dihydro-1H-imidazol-1-yl)methyl)benzamide] |
| 0.26 | Cc1cc(CNC(=O)c2cc(Cn3ccn(C)c3=N)cc(-c3cccnc3C(F)(F)F)c2)ccc1Cl [Example 76, N-(4-Chloro-3-methylbenzyl)-3-((2-imin-3-methyl-2,3-dihydro-1H-imidazol-1-yl)methyl)-5-(2-(trifluoromethyl)pyridin-3-yl)benzamide] |
| 1.2 | Cc1ccnc(C(NC(=O)c2cc(Cn3ccn(C)c3=N)cc(-c3cccnc3C(F)(F)F)c2)C2CC2)c1 (centres unmarked) [Example 77, N-(Cyclopropyl(4-methylpyridin-2-yl)methyl)-3-((2-imino-3-methyl-2,3-dihydro-1H-imidazol-1-yl)methyl)-5-(2-(trifluoromethyl)pyridin-3-yl)benzamide] |
| 0.25 | COc1ccnc([C@@H](NC(=O)c2cc(Cn3ccn(C)c3=N)cc(-c3ccc(F)cc3C)c2)C2CC2)c1 [Example 97] |
| 2.16 | Cc1cc([C@@H](NC(=O)c2cc(Cn3ccn(C)c3=N)cc(-c3ccnn3C(C)C)c2)C2CC2)ccc1F [Example 102, (S)—N-(Cyclopropyl(4-fluoro-3-methylphenyl)methyl)-3-((2-imino-3-methyl-2,3-dihydro-1H-imidazol-1-yl)methyl)-5-(1-isopropyl-1H-pyrazol-5-yl)benzamide] |
| < 0.1 | Cc1cc([C@@H](NC(=O)c2cc(Cn3ccn(C)c3=N)cc(-c3ccc(F)cc3C(F)(F)F)c2F)C2CC2)ccc1F [Example 109] |
| 0.32 | Cc1cc([C@@H](NC(=O)c2cc(Cn3ccn(C)c3=N)cc(OCC3CC3)c2)C2CC2)ccc1F [Example 175] |
| 0.64 | Cc1cc([C@H](C)NC(=O)c2cc(Cn3ccoc3=N)cc(-c3ccc(F)cc3C)c2)ccc1F [Example 230, (S)-4′-Fluoro-N-(1-(4-fluoro-3-methylphenyl)ethyl)-5-((2-iminooxazol-3(2H)-yl)methyl)-2′-methyl-[1,1′-biphenyl]-3-carboxamide] |
| 0.87 | Cc1cc([C@H](NC(=O)c2cc(Cn3ccoc3=N)cc(-c3ccc(F)cc3C)c2)C(F)(F)F)ccc1F [Example 231, (S)-4′-Fluoro-5-((2-iminooxazol-3(2H)-yl)methyl)-2′-methyl-N-(2,2,2-trifluoro-1-(4-fluoro-3-methylphenyl)ethyl)-[1,1′-biphenyl]-3-carboxamide] |
| 0.21 | Cc1cc([C@@H](NC(=O)c2cc(Cn3ccoc3=N)cc(-c3ccc(F)cc3C)c2)C2CC2)ccc1F [Example 232, (S)—N-(Cyclopropyl(4-fluoro-3-methylphenyl)methyl)-4′-fluoro-5-((2-iminooxazol-3(2H)-yl)methyl)-2′-methyl-[1,1′-biphenyl]-3-carboxamide] |
| 1.1 | Cc1cc(F)ccc1-c1cc(Cn2ccoc2=N)cc(C(=O)N[C@@H](C)c2ccc(F)c(C(F)(F)F)c2)c1 [Example 233, (S)-4′-Fluoro-N-(1-(4-fluoro-3-(trifluoromethyl)phenyl)ethyl)-5-((2-iminooxazol-3(2H)-yl)methyl)-2′-methyl-[1,1′-biphenyl]-3-carboxamide] |
| 0.87 | Cc1cc([C@H](C)NC(=O)c2cc(Cn3ccoc3=N)cc(-c3ccc(F)cc3C)c2)ccc1Cl [Example 234, (S)—N-(1-(4-Chloro-3-methylphenyl)ethyl)-4′-fluoro-5-((2-iminooxazol-3(2H)-yl)methyl)-2′-methyl-[1,1′-biphenyl]-3-carboxamide] |
| 5.3 | Cc1ccnc(C(NC(=O)c2cc(Cn3ccoc3=N)cc(-c3ncc(F)cc3C)c2)C2CC2)c1 (centres unmarked) [Example 239, N-(Cyclopropyl(4-methylpyridin-2-yl)methyl)-3-(5-fluoro-3-methylpyridin-2-yl)-5-((2-iminooxazol-3(2H)-yl)methyl)benzamide] |
| 12 | Cc1cc([C@@H](NC(=O)c2cc(Cn3ccoc3=N)cc(-c3ncc(F)cc3C(F)(F)F)c2)C2CC2)ccc1F [Example 241, (S)—N-(Cyclopropyl(4-fluoro-3-methylphenyl)methyl)-3-(5-fluoro-3-(trifluoromethyl)pyridin-2-yl)-5-((2-iminooxazol-3(2H)-yl)methyl)benzamide] |
| 0.12 | Cc1cc([C@@H](NC(=O)c2cc(Cn3ccoc3=N)cc(-c3ccc(F)cc3OC(F)F)c2)C2CC2)ccc1F [Example 242, (S)—N-(Cyclopropyl(4-fluoro-3-methylphenyl)methyl)-2′-(difluoromethoxy)-4′-fluoro-5-((2-iminooxazol-3(2 h)-yl)methyl)-[1,1′-biphenyl]-3-carboxamide] |
| < 0.1 | Cc1cc([C@@H](NC(=O)c2cc(Cn3ccoc3=N)cc(-c3cccnc3C(F)(F)F)c2)C2CC2)ccc1F [Example 243, (S)—N-(Cyclopropyl(4-fluoro-3-methylphenyl)methyl)-3-((2-iminooxazol-3(2H)-yl)methyl)-5-(2-(trifluoromethyl)pyridin-3-yl)benzamide] |
| 0.3 | COc1cc(CNC(=O)c2cc(Cn3ccoc3=N)cc(-c3cccnc3C(F)(F)F)c2)cc(OC)c1 [Example 244, N-(3,5-Dimethoxybenzyl)-3-((2-iminooxazol-3(2H)-yl)methyl)-5-(2-(trifluoromethyl)pyridin-3-yl)benzamide] |
| 0.18 | COc1cc(OC)cc(C(NC(=O)c2cc(Cn3ccoc3=N)cc(-c3cccnc3C(F)(F)F)c2)C2CC2)c1 (centres unmarked) [Example 245, N-(Cyclopropyl(3,5-dimethoxyphenyl)methyl)-3-((2-iminooxazol-3(2H)-yl)methyl)-5-(2-(trifluoromethyl)pyridin-3-yl)benzamide] |
| < 0.1 | Cc1cc([C@@H](NC(=O)c2cc(CN3CCOC3=N)cc(-c3cccnc3C(F)(F)F)c2)C2CC2)ccc1F [Example 253, (S)-(Cyclopropyl(4-fluoro-3-methylphenyl)methyl)-3-((2-iminooxazolidin-3-yl)methyl)-5-(2-(trifluoromethyl)pyridin-3-yl)benzamide] |
| < 0.1 | CCn1cc(-c2cc(CN3CCOC3=N)cc(C(=O)N[C@H](c3ccc(F)c(C)c3)C3CC3)c2)c(C(F)(F)F)n1 [Example 276, (S)—N-(Cyclopropyl(4-fluoro-3-methylphenyl)methyl)-3-(1-ethyl-3-(trifluoromethyl) H-pyrazol-4-yl)-5-((2-iminooxazolidin-3-yl)methyl)benzamide] |
| 0.71 | CCn1cc(-c2cc(Cn3ccoc3=N)cc(C(=O)NCc3ccc(=O)n(C)c3)c2)c(C(F)(F)F)n1 [Example 292, 3-(1-Ethyl-3-(trifluoromethyl)-1H-pyrazol-4-yl)-5-((2-iminooxazol-3(2H)-yl)methyl)-N-((1-methyl-6-oxo-1,6-dihydropyridin-3-yl)methyl)benzamide] |
| 0.91 | COc1cc(CNC(=O)c2cc(Cn3ccsc3=N)cc(-c3ccc(F)cc3C)c2)cc(OC)c1 [Example 307, N-(3,5-Dimethoxybenzyl)-4′-fluoro-5-((2-iminothiazol-3(2H)-yl)methyl)-2′-methyl-[1,1′-biphenyl]-3-carboxamide] |
| 0.95 | Cc1nc(F)ccc1-c1cc(CN2CCCC2=N)cc(C(=O)NCc2ccc(Cl)c(Cl)c2)c1 [Example 331, N-(3,4-Dichlorobenzyl)-3-(6-fluoro-2-methylpyridin-3-yl)-5-((2-iminopyrrolidin-1-yl)methyl)benzamide] |
| 1.4 | Cc1cc(-c2cc(CN3CCCC3=N)cc(C(=O)NCc3ccc(Cl)c(Cl)c3)c2)c(C)cc1F [Example 332, N-(3,4-Dichlorobenzyl)-4′-fluoro-5-((2-iminopyrrolidin-1-yl)methyl)-2′,5′-dimethyl-[1,1′-biphenyl]-3-carboxamide] |

Same assay, conditions: MV4:11 cells, 7 day incubation, read-out: GI50 on cellular proliferation of MV4:11 human cancer cell lines

| Compound | GI50 [µM] |
| --- | --- |
| 3-(1-Ethyl-3-(trifluoromethyl)-1H-pyrazol-4-yl)-5-((2-iminooxazolidin-3-yl)methyl)-N-(1-methyl-6-oxo-1,6-dihydropyridin-3-yl)methyl)benzamide [Example 293] | 0.48 |

Biological target: WDR5 (Homo sapiens (Human), UniProt P61964)
Assay: TR-FRET binding assay (displacement of 10mer-Thr-FAM probe from WDR5)
Conditions: read-out: Ki for Inhibition of WDR5 by TR-FRET assay

| Compound | Ki [µM] |
| --- | --- |
| 3-(1-Ethyl-3-(trifluoromethyl)-1H-pyrazol-4-yl)-5-((2-iminooxazolidin-3-yl)methyl)-N-(1-methyl-6-oxo-1,6-dihydropyridin-3-yl)methyl)benzamide [Example 293] | 0.00054 |
